Data: patent EP0094833A2, “Novel 1,2-benzisoxazole derivatives” (Dainippon Pharmaceutical Co., Ltd., priority 1982, dated 1983)
≈ marks a conversion by molar mass, not a printed value. Structures can show the parent of a compound that is named as a salt. Where two headings read alike, the source gives them in different places.

How the values were obtained:
ileum = assay: Inhibitory effect on contractile response induced by acetylcholine (Anti-ACh), isolated ileum; assay type: cell-based, guinea pig; settings: Cavia porcellus, read-out: Anti-ACh (IC50 : g/ml)
guinea pig taenia-coli = assay: Inhibitory effect on contractile response induced by potassium chloride (Anti-KCl), isolated taenia-coli; assay type: cell-based; settings: Cavia porcellus, read-out: IC50 (g/ml) Anti-KCl
Description: Experiment 2 Inhibitory effect on contractile response induced by potassium chloride (Anti-KC1) In the same manner as described in the above Experiment 1, isolated guinea pig taenia-coli about 3 cm in length was prepared, and mounted in Tyrode's solution. The contractile response was measured with an isometric transducer and recorded on recticorder. Each preparation was adjusted to a tension of .lg and allowed to equilibrate for 30 minutes before measuring the effects of the test compounds. Test compounds were applied to 5 minutes before adding potassium chloride (40 mM). Each Compound was tested in 2 - 3 concentrations.

[1] = system: spontaneous gastric motility; assay: Inhibitory effect on spontaneous gastric motility (Anti-SGM) in conscious rats; assay type: in vivo, male Wistar strain rats; settings: Rat, maximum percent inhibition of initial spontaneous motility
Description: (§1) Experiment 3 Inhibitory effect on spontaneous gastric motility (Anti-SGM)
(§2) This effect was examined using male Wistar strain rats or male Albino strain rabbits, with chronically implanted strain gauge force transducer. The rats or rabbits were allowed to stand for 3 - 5 days for recovery from the surgery and fasted for 18 hours before experiment. Then, spontaneous gastric motility in conscious rats or rabbits was recorded and the sum of amplitude of each contraction was calculated every 15 minutes. Inhibitory effect of test compound by oral administration was expressed as a maximum percent inhibition of initial spontaneous motility.

[2] = system: spontaneous gastric motility; assay: Inhibitory effect on spontaneous gastric motility (Anti-SGM) in conscious rabbits; assay type: in vivo, male Albino strain rabbits; settings: Rabbit, 100 mg/kg po, maximum percent inhibition of initial spontaneous motility
Description: as §1, §2

[3] = guinea pig ileum, acetylcholine 2 X 10^-8 g/ml, test compound applied 2 minutes before
[4] = guinea pig taenia-coli, potassium chloride 40 mM, test compound applied 5 minutes before

| SMILES | IC50 (ileum; [3]) [µg/mL] | IC50 (guinea pig taenia-coli; [4]) [µg/mL] | other results |
| --- | --- | --- | --- |
| CN1CCC(OC(=O)C(Cc2ccccc2)(Cc2ccccc2)c2noc3ccccc23)CC1 [Example 28] | 0.65 (≈ 1.43 µM) | 0.56 (≈ 1.23 µM) | – |
| COc1ccc(Cc2nccc3cc(OC)c(OC)cc23)cc1OC [Papaverine hydrochloride, reference compound] | – | – | IC50 (ileum): 13 µg/mL; IC50 (guinea pig taenia-coli): 1.3 µg/mL |
| CCN(CC)CCCC(C)OC(=O)C(c1noc2ccccc12)C1CCCCC1 (stereo not shown) [Example 7] | 0.69 (≈ 1.72 µM) | – | – |
| CCN(CC)CCOC(=O)C(c1noc2ccccc12)C1CCCCC1 (stereo not shown) [Example 3] | 0.12 (≈ 0.335 µM) | 1 (≈ 2.79 µM) | – |
| C[N+]1(C)CCC(OC(=O)C(c2noc3ccccc23)C2CCCCC2)CC1 (stereo not shown) [Example 33] | 0.013 | – | – |
| Br.CCN(CC)CCCOC(=O)C(c1noc2ccccc12)C1CCCCC1 (stereo not drawn) [Example 1, 3-Diethylaminopropyl α-cyclohexyl-1,2-benzisoxazole-3-acetate hydrobromide] | 0.16 | 0.85 | Inhibition (%) ([1]; 100 mg/kg po): 36%; Inhibition (%) ([1]; 200 mg/kg po): 49%; Inhibition (%) [2]: 52% |
| CN1CCC(OC(=O)C(c2noc3ccccc23)C2CCCCC2)CC1 (stereo not shown) [Example 5] | 0.037 (≈ 0.104 µM) | – | – |
| CC[N+](C)(CC)CCOC(=O)C(c1noc2ccccc12)C1CCCCC1 (racemic) [Example 34] | 0.026 | – | – |
| CC[N+]1(C)CCC(OC(=O)C(c2noc3ccccc23)C2CCCCC2)CC1.[Br-] (stereo not shown) [Example 31, 1-Ethyl-1-methyl-4-[2-(1,2-benzisoxazol-3-yl)-2-cyclohexylacetoxy]piperidinium bromide] | 0.014 | – | – |

Second part, led by results:

| IC50 (ileum; [3]) [µg/mL] | IC50 (guinea pig taenia-coli; [4]) [µg/mL] | SMILES | other results |
| --- | --- | --- | --- |
| 1.1 (≈ 3.24 µM) | 5.4 (≈ 15.9 µM) | CCN(CC)CC(C)OC(=O)C1CCCCC1(O)C1CCCCC1 (stereo not shown) [Rociverine, reference compound] | – |
| 0.089 | – | CCCC[N+]1(C)C2CC(OC(=O)C(CO)c3ccccc3)CC1C1OC12 (stereo not shown) [Scopolamine-N-butyl bromide, reference compound] | – |
| 0.42 (≈ 1.13 µM) | 1.6 (≈ 4.3 µM) | CCN(CC)CC(C)OC(=O)C(c1noc2ccccc12)C1CCCCC1 (stereo not shown) [Example 4] | – |
| 0.41 (≈ 1.11 µM) | 2.7 (≈ 7.29 µM) | O=C(OCCN1CCCCC1)C(c1noc2ccccc12)C1CCCCC1 (stereo not shown) [Example 9] | – |
| 0.34 | 3.2 | CN1CCC(OC(=O)C(c2noc3ccc(Cl)cc23)C2CCCCC2)CC1.O=C(O)C(=O)O (stereo not drawn) [Example 2, 1-Methyl-4-piperidyl α-cyclohexyl-5-chloro-1,2-benzisoxazole-3-acetate oxalate] | – |
| 0.057 | – | C[N+]1(C)CCC(OC(=O)C(c2noc3ccc(Cl)cc23)C2CCCCC2)CC1 (racemic) [Example 35] | – |
| 0.21 | – | CC[N+](C)(CC)CCCOC(=O)C(c1noc2ccccc12)C1CCCCC1 (stereo not shown) [Example 32] | – |
| 0.87 (≈ 2.21 µM) | 3.3 (≈ 8.4 µM) | CCN(CC)CCOC(=O)C(c1noc2ccc(Cl)cc12)C1CCCCC1 (stereo not shown) [Example 10] | – |
| 0.48 (≈ 1.24 µM) | – | CCN(CC)CCCCOC(=O)C(c1noc2ccccc12)C1CCCCC1 (stereo not shown) [Example 8] | – |
| 0.96 (≈ 2.11 µM) | – | O=C(OCCN1CCCC1)C(Cc1ccccc1)(Cc1ccccc1)c1noc2ccccc12 [Example 29] | – |
